# “Also recorded” adds a separate entry of the source.
# Key:
# [1] = ABTS free radical scavenging assay; settings: triplicate (n = 3); 745 nm, 15 min
# Experimental: The antioxidant potential of the synthesized compounds were also determined using ABTS free radical following a reported standard protocol. ABTS (7 mM) and K2S2O8 (2.45 mM) were mixed (in methanol) and put in the dark for 24 h for free radicals’ formation, which was then used as stock solution. The absorbance of 3 mL from the stock ABTS was adjusted to 0.75 at 745 nm, which was considered a control. About 300 μl of each of the serial dilutions (0.1–3.5 μM) of SB1– SB6 and 3 mL of stock ABTS were mixed and incubated for 15 min at 25 °C, and their absorbance was measured at 745 nm. Ascorbic acid was used as a control. The scavenging activity was calculated by Equation (1).
# [2] = DPPH free radical scavenging assay; settings: triplicate (n = 3); 517 nm, 15 min
# Experimental: A slightly modified DPPH assay as described by Brand William was followed. Initially, the absorbance of 3 mL from stock DPPH (20 mg/100 mL of methanol) was adjusted to 0.75 at 517 nm. The DPPH stock solution was covered and kept in the dark overnight to generate free radicals. About 2 mL of each dilution of different ranges (0.1–3.5 μM) was prepared from SB1– SB6 stock (5 mg/5 mL of methanol) were mixed with 2 mL of pre-incubated DPPH stock solution and incubated for 15 min at room temperature. Ascorbic acid was used as a standard. The absorbance of the reaction mixtures was recorded at 517 nm and the % inhibition was calculated by Equation (1):[1] %inhibition=A−B/A×100
# where A = absorbance of pure DPPH in oxidized form, B = absorbance of the sample, which
# Was measured after 15 min of reaction with DPPH.
# [3] = system: scopolamine-induced memory impairment in mice; experiment: Y-maze spontaneous alternation, scopolamine-induced amnesia; assay type: in vivo, Albino mice; settings: for effect on spontaneous alternation / short-term memory retention in Y-Maze (significance): 50 and 100 mg/kg b.w, compared with scopolamine-injected group
# Experimental: (§1) Albino mice (20–23 g b. w.) were brought from National Institute of Health, Islamabad, Pakistan, and the mice were retained in animal house at University of Malakand at Department of Pharmacy for acclimation. Normal pellet diet and water were provided to all the animals and were kept for 12 h of light-dark cycle under normal laboratory conditions (temperature in a range of 25 ± 2 °C, humidity of 56–66%). All protocols employed were approved from the Ethical Committee vide notification Pharm/EC-QRE/10–31/25 as per approved “Animal Bye-Laws 2008, Scientific Procedures Issue-I of the Malakand University” and the UK animal scientific procedure act (1986).
# (§2) After acclimatization, the animals were grouped into different groups consisting of 6 animals each. […] It also can induce amyloid β deposition, oxidative stress, synaptic dysfunction, and learning/memory impairment in experimental animals. Group II received scopolamine along with galantamine as standard. […] The treatment was carried out continuously for 7 days and after treatment schedule, the animals were subjected to behavioural study using Y-maze and NORT.
# To assess the short-term memory (amnesic) effect, the exploratory activity of mice were investigated using Y- maze apparatus. At a time, a single mouse was placed at Y-shaped maize and allowed to move freely for 5-min session and alterations were recorded as shown in Fig. 2. The percentage alternations were calculated as per reported protocol and mathematically as given in equation (2).[2] %Alternation=Spontaneousalternation/Totalnumberofarmentries−2×100
# Fig. 2 (A). Schematic drawings of the Y-maze and the experimental procedures. The sample trial and test trials were conducted for 5 min at a 30 min interval. (B) The Y-Maze test diagrammatic figure. (a) The mouse was positioned in the middle of the fixed arm and faced the maze's centre during the test. (b) A mouse was considered to have entered an arm when all four of its paws passed the threshold inside the arm and the mouse's snout was pointed in the direction of the end of the arm. (C). Alternations consist of single, uninterrupted entries into each arm of the y-maze. There are three steps involved in each alternation. The steps of alternation are shown in (a) the first entrance into the arm 1; (b) the second entry into the arm 3; and (c) the third entry into the arm 2 [41, 42].
# [4] = system: scopolamine-induced memory impairment in mice; experiment: Novel object recognition test (NORT), scopolamine-induced amnesia; assay type: in vivo, Albino mice; settings: for effect on time spent with the new object N (exploration time) in NOR test: 50 and 100 mg/kg b.w (galantamine: standard), compared with scopolamine group; for effect on discrimination index in NOR test: 50 mg/kg and 100 mg/kg b.w, compared with scopolamine group / galantamine; for effect on latency time to discover familiar object (F) in NOR test: 50 and 100 mg/kg b.w, compared with scopolamine-injected group
# Experimental: as §1
# as §2, with “animals.” for “animals. Group II received scopolamine along with galantamine as standard.”
# NORT was used to assess the effect of vanillin derivatives on memory in mice model. The apparatus employed in this test measures 40 cm wide, 40 cm long, and 66 cm tall. NORT entails a two-day habituation period, followed by a two-day training session and finally a testing or experimental period. During habituation, an empty box was used, two identical objects were placed in two corners of the box during training, and one unique object was replaced during testing as shown in Fig. 3. To test long-term memory in mice, a five-day washout period was provided before the NORT. The time spent in each phase was manually documented using a stopwatch.
# Fig. 3 Procedures for novel object recognition (NORT). The three phases of the test are shown. In NORT, object identity is changed between training and test; object location is remained unchanged.
# [5] = target: T1, butyrylcholinesterase (EC 3.1.1.8) (Homo sapiens, UniProt P06276); experiment: In-vitro BChE inhibitory assay (Ellman's protocol); assay type: biochemical; settings: triplicate (n = 3); 405 nm
# T1 construct: purchased local market (no vendor named)
# Experimental: (§3) To evaluate the therapeutic effectiveness of the compounds as inhibitors of cholinesterases, the reported procedures were followed (Elman's protocol). Enzymes acetylcholinesterase (EC 3.1.1.7) and butyrylcholinesterase (EC 3.1.1.8) were purchased from local market.
# The absorbance at 405 nm was measured and the data were analysed in triplicate.
# [6] = target: T2, acetylcholinesterase (EC 3.1.1.7) (Homo sapiens, UniProt P22303); experiment: biochemical; settings: triplicate (n = 3); 405 nm; read-out: IC50 (μM) AChE
# T2 construct: purchased local market (no vendor named)
# Excerpt: as §3
# The acetylcholinesterase inhibition assay is based on the principle of the hydrolytic breakdown of substrate; acetylthiocholine iodide by acetylcholinesterase enzyme. The AChE acts on acetylthiocholine to thiocholine which then react with DTNB that's leads towards the formations of anion (5-thio-2-nitrobenzoate) a yellow colour product which is then assessed via UV visible spectrophotometer at 405 nm.
# The AChE, Ellman's Reagent (DTNB) and acetylthiocholine iodide (ATChI, substrate), and the test compound solutions were made in different concentrations ranges from (0.01–1.0 μM) were incubated per detail given in the Ellman's protocol. […] IC50 of each Schiff bases were calculated using Microsoft Excel 2013 software.
# [7] = 50 mg/kg b.w (lower test dose), 7 days, with scopolamine 2 mg/kg i.p., mean ± SEM, n = 6
# T2 sequence (P22303 32-614, species assumed): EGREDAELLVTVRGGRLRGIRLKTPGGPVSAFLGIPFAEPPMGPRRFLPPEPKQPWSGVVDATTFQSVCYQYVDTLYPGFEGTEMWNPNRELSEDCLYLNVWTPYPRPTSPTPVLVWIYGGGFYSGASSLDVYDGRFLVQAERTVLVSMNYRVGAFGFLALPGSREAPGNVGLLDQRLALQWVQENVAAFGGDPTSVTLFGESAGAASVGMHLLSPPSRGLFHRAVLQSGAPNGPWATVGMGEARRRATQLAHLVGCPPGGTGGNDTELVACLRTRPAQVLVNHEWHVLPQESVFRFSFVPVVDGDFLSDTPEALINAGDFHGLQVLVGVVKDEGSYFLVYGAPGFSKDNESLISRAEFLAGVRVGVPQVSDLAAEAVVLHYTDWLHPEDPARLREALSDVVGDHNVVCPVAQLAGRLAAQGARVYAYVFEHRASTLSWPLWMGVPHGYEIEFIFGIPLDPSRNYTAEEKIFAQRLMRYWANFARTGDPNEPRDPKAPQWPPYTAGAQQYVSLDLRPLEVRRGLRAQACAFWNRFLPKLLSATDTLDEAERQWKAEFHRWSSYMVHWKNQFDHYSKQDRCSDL
# T1 sequence (P06276 29-602): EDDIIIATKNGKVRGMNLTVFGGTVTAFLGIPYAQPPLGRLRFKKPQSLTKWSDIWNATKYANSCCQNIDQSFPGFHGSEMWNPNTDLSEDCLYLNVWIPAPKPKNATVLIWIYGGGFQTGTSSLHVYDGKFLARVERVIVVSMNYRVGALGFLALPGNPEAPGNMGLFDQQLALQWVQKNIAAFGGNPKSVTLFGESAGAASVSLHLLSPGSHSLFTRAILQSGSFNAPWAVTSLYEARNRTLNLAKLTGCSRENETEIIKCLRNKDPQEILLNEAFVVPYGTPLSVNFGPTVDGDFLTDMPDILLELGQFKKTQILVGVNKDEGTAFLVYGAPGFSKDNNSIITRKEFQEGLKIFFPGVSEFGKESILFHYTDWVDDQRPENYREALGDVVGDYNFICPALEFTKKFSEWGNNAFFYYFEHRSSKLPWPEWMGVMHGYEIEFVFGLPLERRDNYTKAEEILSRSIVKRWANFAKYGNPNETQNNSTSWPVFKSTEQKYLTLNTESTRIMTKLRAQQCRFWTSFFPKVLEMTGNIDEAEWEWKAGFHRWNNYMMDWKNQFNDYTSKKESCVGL
Compound,IC50 [1],IC50 [2],"spontaneous alternation rate in Y-Maze ([3]; standard group: galantamine with scopolamine, P < 0.001 vs scopolamine-treated group)",effect on time spent with the new object N (exploration time) in NOR test [4],"spontaneous alternation rate in Y-Maze [3, 7]",effect on spontaneous alternation / short-term memory retention in Y-Maze (significance) [3],effect on discrimination index in NOR test [4],effect on latency time to discover familiar object (F) in NOR test [4],IC50 [5],IC50 [6],"changes in the memory and cognition of mice (NORT) ([4]; mouse, in vivo)","spontaneous alternation rate in Y-Maze ([3]; scopolamine-treated group, 2 mg/kg i.p. alone, n = 6)"
"O=C1O[C@H]([C@@H](O)CO)C(O)=C1O [Ascorbic acid, reference compound]",0.073 µM,0.074 µM,,,,,,,,,,
"COc1ccc2c3c1O[C@H]1C[C@@H](O)C=C[C@@]31CCN(C)C2 [Galantamine, reference compound]",,,more than 80%,significant increase,,,,,,,,
"COc1cc(/C=N/c2ccccc2C(F)(F)F)ccc1O [SB-1, (E)-2-methoxy-4-(((2-(trifluoromethyl)phenyl)imino)methyl)phenol]",0.208 µM,0.588 µM,,significant increase,69.44 ± 1%,significantly improved,most prominent activity; also recorded: more pronounced as compared to standard drug,decreased the latency time significantly,0.265 µM,0.078 µM,,
"COc1ccc(/C=N/c2ccccc2C(F)(F)F)cc1O [SB-2, (E)-2-methoxy-5-(((2-(trifluoromethyl)phenyl)imino)methyl)phenol]",0.401 µM,0.447 µM,,insignificant activity,,no significant effect,insignificant activity,insignificant,0.188 µM,0.61 µM,did not cause any changes,
"Oc1ccc(/C=N/c2ccccc2C(F)(F)F)cc1 [SB-3, (E)-4-(((2-(trifluoromethyl)phenyl)imino)methyl)phenol]",0.118 µM,0.305 µM,,significant increase,68.92 ± 1%,significantly improved,most prominent activity,decreased the latency time significantly,0.057 µM,0.157 µM,,
"Cc1ccc(/N=C/c2ccc(O)cc2)c(Cl)c1 [SB-4, (E)-4-(((2-chloro-4-methylphenyl)imino)methyl)phenol]",0.969 µM,0.804 µM,,significant increase,,,most prominent activity,decreased the latency time significantly,0.367 µM,0.108 µM,,
"Cc1ccc(/N=C/c2ccccc2Br)c(Cl)c1 [SB-5, (E)-N-(2-bromobenzylidene)-2-chloro-4-methylaniline]",0.19 µM,0.72 µM,,insignificant activity,,,insignificant activity,significant decrease,0.186 µM,0.442 µM,,
"Cc1ccc(/N=C/c2ccc[nH]2)c(Cl)c1 [SB-6, (E)-N-((1H-pyrrol-2-yl)methylene)-2-chloro-4-methylaniline]",3.3 µM,2.8 µM,,slight activity,,,,decreased the latency time significantly,0.117 µM,,,
CN1[C@@H]2C[C@@H](OC(=O)[C@H](CO)c3ccccc3)C[C@H]1[C@@H]1O[C@@H]12 [Scopolamine],,,,,,,,,,,,38.16%
